Common to all, as to assay type: in vivo
The test system of assay [1] is Phakopsora pachyrhizi. The assay can be described thus: Test Example 5: test of effect on Phakopsora pachyrhizi on soybean, foliar spray. As to conditions: soybean (Natto shoryu), inoculated 14 days after spraying, lesion area of first trifoliate. On the procedure: (§1) Based on the lesion areas in the treated plot and the non-treated plot, the effect of the treated plot was calculated according to the following formula (I). The results are shown in [Table 1]. Effect(%)=(1−(lesion area in treated plot)/(lesion area in non-treated plot))×100 formula (1)
(§2) Test of Effect on Phakopsora pachyrhizi
(§3) A plastic pot was stuffed with a soil, soybean (variety; Natto shoryu) was sown on this, and allowed to grow in a greenhouse until unfolding of the unifoliate. The present carboxamide compounds (2) and (3) and racemic N-(1,1,3-trimethylindan-4-yl)-1-methyl-3-difluoromethylpyrazole-4-carboxamide (hereinafter, referred to as racemic compound (B)) and racemic N-(1,1,3-trimethylindan-4-yl)-1,3,5-trimethylpyrazole-4-carboxamide (hereinafter, referred to as racemic compound (C)) were prepared into formulations according to Formulation Example 6, then, the formulations were diluted with water to attain a prescribed concentration, and sprayed to foliar part so as to satisfactorily adhere to the leaf surfaces of the soybean. The soybean was further cultivated at room temperature for 14 days, and grown until unfolding of the first trifoliate. The plant was inoculated with an aqueous suspension of Phakopsora pachyrhizi spores by spraying. After inoculation, the plant was allowed to stand under humid condition at 23° C. overnight, further, allowed to stand for 7 days at room temperature, then, the lesion area of the first trifoliate was checked.
Based on the lesion areas in the treated plot and the non-treated plot, the effect of the treated plot was calculated according to the above-described formula (I). The results are shown in [Table 2].

The subject of assay [2] is Mycosphaerella graminicola (Septoria tritici). Put plainly: Test of effect of preventing Mycosphaerella graminicola (Septoria tritici) on wheat, foliar spray. To be noted: 50 ppm foliar spray; wheat (Apogee); inoculated two days after spraying. As to the method: The control effect was evaluated by visually observing the area of a lesion on a test plant in investigation, and comparing the area of a lesion on a plant treated with a test composition and the area of a lesion on a non-treated plant.
Test of Effect of Preventing Mycosphaerella graminicola (Septoria tritici)
A plastic pot was stuffed with a soil, wheat (variety; Apogee) was sown on this, and allowed to grow in a greenhouse for 10 days. […] After spraying, the plant was air-dried, and two days after, inoculated with an aqueous suspension of Septoria tritici spores by spraying. After inoculation, the plant was first allowed to stand under humid condition at 18° C. for 3 days, further, allowed to stand for 14 to 18 days under illumination, then, the lesion area was checked. As a result, the lesion on the plant treated with the present carboxamide compounds (1), (2) and (3) was 10% or less of the lesion area on a non-treated plant.
The same test was carried out excepting the application concentration, using racemic N-(1,1,3-trimethylindan-4-yl)-1-methyl-3-trifluoromethylpyrazole-4-carboxylic amide (hereinafter, referred to as racemic compound (A)) instead of the present carboxamide compound. As a result, the lesion area on the plant treated with 50 ppm of the racemic compound (A) was 75% or more of the lesion area on a non-treated plant.

Assay [3] relates to Phakopsora pachyrhizi. The assay can be described thus: Test Example 4: test of effect on Phakopsora pachyrhizi on soybean, foliar spray. To be noted: 50 ppm; soybean (Natto shoryu); inoculated 14 days after spraying; lesion area of first trifoliate. As to the method:
as §2
as §3, with “carboxamide” for “carboxamide compounds (2) and (3) and racemic N-(1,1,3-trimethylindan-4-yl)-1-methyl-3-difluoromethylpyrazole-4-carboxamide (hereinafter, referred to as racemic”, “compound (1) was” for “compound (B)) and racemic N-(1,1,3-trimethylindan-4-yl)-1,3,5-trimethylpyrazole-4-carboxamide (hereinafter, referred to as racemic compound (C)) were”, “cultivated in greenhouse” for “cultivated at room temperature”, “first trifolidate.” for “first trifoliate.”
as §1

The text below walks through data of patent US8580836B2, “Plant disease control composition and method of controlling plant disease” (Sumitomo Chemical Company, Limited, priority 2010, dated 2013).

Regarding `CC1CC(C)(C)c2cccc(NC(=O)c3cn(C)nc3C(F)F)c21` (racemic) [Racemic compound (B), N-(1,1,3-trimethylindan-4-yl)-1-methyl-3-difluoromethylpyrazole-4-carboxamide, reference compound], the “Effect [%]” value in assay [1] (200 ppm) came out at 46.7%.

For the molecule `Cc1nn(C)c(C)c1C(=O)Nc1cccc2c1C(C)CC2(C)C` (racemic) [Racemic compound (C), N-(1,1,3-trimethylindan-4-yl)-1,3,5-trimethylpyrazole-4-carboxamide, reference compound], the “Effect [%]” value in assay [1] (200 ppm) worked out at 76.5%.

In the case of `CC1CC(C)(C)c2cccc(NC(=O)c3cn(C)nc3C(F)(F)F)c21` (racemic) [racemic compound (A), N-(1,1,3-trimethylindan-4-yl)-1-methyl-3-trifluoromethylpyrazole-4-carboxylic amide], the “lesion area on treated plant relative to lesion area on a non-treated plant” value in assay [2] is at least 75%.

In the case of `C[C@@H]1CC(C)(C)c2cccc(NC(=O)c3cn(C)nc3C(F)(F)F)c21` [present carboxamide compound (1), (R)-(−)-N-(1,1,3-trimethylindan-4-yl)-1-methyl-3-trifluoromethylpyrazole-4-carboxamide], the “Effect [%]” value in assay [3] is reported as 98.1%.

`C[C@@H]1CC(C)(C)c2cccc(NC(=O)c3cn(C)nc3C(F)F)c21` [present carboxamide compound (2), (R)-(−)-N-(1,1,3-trimethylindan-4-yl)-1-methyl-3-difluoromethylpyrazole-4-carboxamide]: the “Effect [%]” value was 77.1% in assay [1] (100 ppm) and 100% in assay [1] (200 ppm).

As for `Cc1nn(C)c(C)c1C(=O)Nc1cccc2c1[C@H](C)CC2(C)C` [present carboxamide compound (3), (R)-(−)-N-(1,1,3-trimethylindan-4-yl)-1,3,5-trimethylpyrazole-4-carboxamide], the “Effect [%]” value in assay [1] (100 ppm) stood at 98.4%; in assay [1] (200 ppm), 100%.
